Results as given in patent publication US8669256B2, “Substituted thieno[2,3-b]pyrazine compounds as modulators of B-Raf kinase activity” (Merck Sharp & Dohme B.V., priority 2010, dated 2014).

tested on: phosphorylation of ERK1/2 in A375 cells containing mutant B-Raf (V600E); assay: Phospho-ERK FACE assay in A375 (B-Raf mutated) melanoma cell line; assay type: cell-based; settings: Homo sapiens, A-375; A375 cells, 2 hours incubation, between 1 μM and 100 nM (6<pIC50<7); read-out: IC50, A375 melanoma phospho-ERK assay
Experimental: The B-Raf activity can also be determined in a B-Raf mutated melanoma cell line, such as the A375 cell line. Inhibition of phosphorylation of ERK1/2 can be measured using a Fast Activated Cell-based ELISA (FACE) from Active Motif (Carlsbad, U.S.A., CA). E.g. A375 cells, which are cells containing a mutant form of B-Raf (V600E) and thus contain high levels of phosphorylated ERK, can be incubated with Raf inhibitors. Then cells can be incubated with anti-phospho-ERK antibody and subsequently with horse radish peroxidase (HRP)-labeled secondary antibody. Finally, chemiluminescence reagents can be added, which react with HRP, to give a luminescence signal.
Determination of B-Raf Activity Using a A375 (B-Raf mutated) Melanoma Cell Line (Phospho-ERK FACE Assay)
Inhibition of phosphorylation of ERK1/2 was measured using a Fast Activated Cell-based ELISA (FACE) from Active Motif (Carlsbad, U.S.A., CA). Briefly, A375 cells, which are cells containing a mutant form of B-Raf (V600E) and thus contain high levels of phosphorylated ERK, were incubated for 2 hours with Raf inhibitors. Then, cells were fixed with paraformaldehyde, washed and following quenching and blocking, incubated with anti-phospho-ERK antibody, and as a control, on a separate plate, with ERK antibody. After washing and removal of the primary antibodies, the fixed cells were incubated with horse radish peroxidase (HRP)-labeled secondary antibody. Finally, chemiluminescence reagents were added, which react with HRP, to give a luminescence signal.
Detailed protocol: A375 cells were cultured in DMEM/F12 (Dulbecco's Modified Eagle Medium Nutrient Mixture F-12) (Invitrogen), supplemented with 10% fetal bovine serum (FBS) (Biowhittaker), 100 U/ml penicillin G and 100 μg/ml streptomycin (Gibco). For the phospho ERK assay, cells were seeded at a density of 15,000 cells/well in 100 μl culture medium in 96-well plates and incubated in a humidified atmosphere at 5% CO2 and 37° C. After 24 hours, cells were washed with DMEM/F12 supplemented with 0.1% FBS (assay medium 120 μl of assay medium was added and the plates were incubated overnight in a humidified atmosphere at 5% CO2 and 37° C. The next day, the assay medium was removed and compounds diluted in assay medium were added to the cells. Final DMSO concentration in the assay was 1%. After 2 hours incubation, cells were fixed by replacing the assay medium with 100 μl of 4% formaldehyde (Bio-Connect, Huissen, The Netherlands) in PBS. After 20 minutes of incubation at room temperature, cells were washed three times with 200 μl wash buffer (0.1% (vol/vol) Triton X-100 in PBS from the FACE kit) followed by an incubation of 20 minutes with 100 μl quenching buffer, containing 1% (vol/vol) hydrogen peroxide (Thermo Fisher Scientific) and 0.1% (vol/vol) sodium azide (Sigma-Aldrich) in phosphate-buffered saline. Cells were washed two times with wash buffer, incubated for 1 hour with 100 μl antibody blocking buffer from the kit and washed two times again. 40 μl of diluted antibody against phosphorylated ERK1/2 (1:500 from the FACE kit) was added and incubated overnight at 4° C. The phospho-ERK antibody has been raised against a synthetic phospho-peptide corresponding to residues Thr202 and Tyr204 of human ERK1 and Thr185 and Tyr187 of human ERK2. For the detection of total ERK, antibody against ERK1 and ERK2 (1:500 from the FACE kit) was added. The excessive primary antibody was washed out, and 100 μl diluted HRP-conjugated anti-rabbit IgG (1:2000 from the FACE kit) was added and incubated for 1 hour at room temperature. Secondary antibody was removed and cells were washed 3 times with wash buffer and twice with PBS. 50 μl per well of FACE chemiluminescent working solution was added. Chemiluminescence was measured on an Envision Multilabel reader.

IC50 | Structure (SMILES)
100 to 1000 nM | CNc1cnc2cc(C(=O)Nc3cc(NC(=O)c4cccc(C(C)(C)C#N)c4)ccc3C)sc2n1 [Example 59, N-(5-(3-(2-cyanopropan-2-yl)benzamido)-2-methylphenyl)-3-(methylamino)thieno[2,3-b]pyrazine-6-carboxamide]

same assay, conditions: Homo sapiens, A-375; A375 cells, 2 hours incubation; class given as below 100 nM (pIC50>7); read-out: IC50, A375 melanoma phospho-ERK assay

IC50 | Structure (SMILES)
< 100 nM | Cc1ccc(NC(=O)c2cccc(C(C)(C)C#N)c2)cc1NC(=O)c1sc2nccnc2c1N [Example 1, 7-amino-N-(5-(3-(2-cyanopropan-2-yl)benzamido)-2-methylphenyl)thieno[2,3-b]pyrazine-6-carboxamide]

biological target: T1, GST-tagged human recombinant active B-Raf (Δ1-415) (Homo sapiens, UniProt P15056); assay: B-Raf kinase activity, IMAP coupled assay (B-Raf/MEK1/ERK2, fluorescence polarization); assay type: biochemical; settings: not given
T1 construct: GST; purchased Upstate/Millipore
From the text: (§1) In another assay the B-Raf kinase activity can be determined by using an IMAP assay (Immobilized Metal Assay for Phosphochemicals-based coupled assay). IMAP is a homogeneous fluorescence polarization (FP) assay based on affinity capture of phosphorylated peptide substrates. IMAP uses fluorescein-labeled peptide substrates that, upon phosphorylation by a protein kinase, bind to so called IMAP nanoparticles, which are derivatized with trivalent metal complexes. Such binding causes a change in the rate of the molecular motion of the peptide, and results in an increase in the FP value observed for the fluorescein label attached to the substrate peptide. In such an assay, B-Raf phosphorylates unactive MEK1. The phosphorylated MEK1 is capable of phosphorylating ERK2, which subsequently phosphorylates the fluorescein-labeled peptide substrate.
Determination of B-Raf Kinase Activity using an IMAP Assay
as §1, with “Inhibition of” for “In another assay the”, “was measured” for “can be determined by”, “Immobilized” for “IMAP assay (Immobilized”, “assay (IMAP).” for “assay).”, “this” for “such an”
Enzymes, substrate and ATP were diluted at all steps in Kinase Reaction buffer (10 mM Tris-HCl, 10 mM MgCl2, 0.01% Tween-20, 0.05% NaN3 pH 7.2, 1 mM DTT). The final volume at the kinase reaction step of the assay in the 384-well plate was 20 μl. The concentrations within brackets are final concentrations in the assay. B-Raf (GST-tagged human recombinant active B-Raf (Δ1-415), Upstate/Millipore; 0.2 U/ml) was pre-incubated with compounds or DMSO (1% final concentration) for 60 minutes at room temperature in the dark. Thereafter, MEK 1 (GST-tagged human recombinant unactive MEK1 (full-length); 64 ng/ml), ERK2 (GST-tagged human recombinant unactive ERK2 (full-length); 600 ng/ml), peptide substrate (Erktide, Molecular Devices; 50 nM) and ATP (50 μM) were added to the wells and the mix was incubated for another 60 minutes at 30° C. in the dark. Then, IMAP progressive binding buffer (75% 1× buffer A, 25% 1× buffer B, 1:900 Progressive Binding Reagent; Molecular Devices) was added followed by an incubation step of 60 minutes at room temperature in the dark. Finally, the FP signal was read on an Envision Multilabel reader (Perkin Elmer).

T1 sequence (P15056 416-766, stated change not applied): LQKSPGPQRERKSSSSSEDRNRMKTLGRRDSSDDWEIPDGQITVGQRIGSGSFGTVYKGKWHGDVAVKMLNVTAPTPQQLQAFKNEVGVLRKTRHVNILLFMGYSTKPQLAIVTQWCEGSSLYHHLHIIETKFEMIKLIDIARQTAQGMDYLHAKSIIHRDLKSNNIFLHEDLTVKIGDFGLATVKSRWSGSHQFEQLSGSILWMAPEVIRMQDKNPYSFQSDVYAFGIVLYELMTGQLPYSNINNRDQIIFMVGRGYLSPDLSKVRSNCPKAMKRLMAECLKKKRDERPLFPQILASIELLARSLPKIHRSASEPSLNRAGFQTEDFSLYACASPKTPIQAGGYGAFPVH

Structure (SMILES) | IC50
Cc1ccc(NC(=O)c2cccc(C(C)(C)C#N)c2)cc1/N=C(\C#N)c1cc2nccnc2s1 [Example 56, (E)-N-(5-(3-(2-cyanopropan-2-yl)benzamido)-2-methylphenyl)thieno[2,3-b]pyrazine-6-carbimidoyl cyanide] | < 100 nM

same assay, conditions: bounds also given as pIC50 (>6, >7, >8); 60 min pre-incubation with compound, ATP 50 μM; read-out: IC50, B-Raf IMAP assay

IC50 | Structure (SMILES)
< 10 nM | Cc1ccc(NC(=O)c2cccc(C(C)(C)C#N)c2)cc1NC(=O)c1sc2nccnc2c1N [Example 1, 7-amino-N-(5-(3-(2-cyanopropan-2-yl)benzamido)-2-methylphenyl)thieno[2,3-b]pyrazine-6-carboxamide]
< 100 nM | Cc1ccc(NC(=O)c2cccc(C(C)(C)C#N)c2)cc1NC(=O)c1cc2nc(Cl)cnc2s1 [Example 12, 2-chloro-N-(5-(3-(2-cyanopropan-2-yl)benzamido)-2-methylphenyl)thieno[2,3-b]pyrazine-6-carboxamide]
< 10 nM | Cc1ccc(NC(=O)c2cccc(C(C)(C)C#N)c2)cc1NC(=O)c1cc2nc(-c3cncnc3)cnc2s1 [Example 22, N-(5-(3-(2-cyanopropan-2-yl)benzamido)-2-methylphenyl)-2-(pyrimidin-5-yl)thieno[2,3-b]pyrazine-6-carboxamide]
< 100 nM | Cc1ccc(NC(=O)c2cccc(C(C)(C)C#N)c2)cc1NC(=O)c1cc2nc(-c3cnc(N(C)C)nc3)cnc2s1 [Example 23, N-(5-(3-(2-cyanopropan-2-yl)benzamido)-2-methylphenyl)-2-(2-(dimethylamino)pyrimidin-5-yl)thieno[2,3-b]pyrazine-6-carboxamide]
< 100 nM | Cc1ccc(NC(=O)c2ccnc(N(C)C)c2)cc1NC(=O)c1cc2nccnc2s1 [Example 25, N-(5-(2-(dimethylamino)isonicotinamido)-2-methylphenyl)thieno[2,3-b]pyrazine-6-carboxamide]
< 100 nM | Cc1ccc(NC(=O)c2ccc(CN3CCN(C)CC3)c(C(F)(F)F)c2)cc1NC(=O)c1cc2nccnc2s1 [Example 33, N-(2-methyl-5-(4-((4-methylpiperazin-1-yl)methyl)-3-(trifluoromethyl)benzamido)phenyl)thieno[2,3-b]pyrazine-6-carboxamide]
< 100 nM | Cc1ccc(NC(=O)c2cccc(-n3cccn3)c2)cc1NC(=O)c1cc2nccnc2s1 [Example 34, N-(5-(3-(1H-pyrazol-1-yl)benzamido)-2-methylphenyl)thieno[2,3-b]pyrazine-6-carboxamide]
< 100 nM | Cc1ccc(NC(=O)c2cccc(C(C)(C)C#N)c2)cc1NCc1cc2nccnc2s1 [Example 47, 3-(2-cyanopropan-2-yl)-N-(4-methyl-3-(thieno[2,3-b]pyrazin-6-ylmethylamino)phenyl)benzamide]
< 100 nM | Cc1ccc(C(=O)Nc2cccc(C(F)(F)F)c2)cc1NC(=O)c1cc2nccnc2s1 [Example 48, N-(2-methyl-5-(3-(trifluoromethyl)phenylcarbamoyl)phenyl)-thieno[2,3-b]pyrazine-6-carboxamide]
< 100 nM | CC(C)(C#N)c1cccc(C(=O)Nc2ccc(C#N)c(NC(=O)c3cc4nccnc4s3)c2)c1 [Example 52, N-(2-cyano-5-(3-(2-cyanopropan-2-yl)benzamido)phenyl)thieno[2,3-b]pyrazine-6-carboxamide]
< 100 nM | Cc1ccc(NC(=O)c2cccc(-c3ccsc3)c2)cc1NC(=O)c1cc2nccnc2s1 [Example 57, N-(2-methyl-5-(3-(thiophen-3-yl)benzamido)phenyl)thieno[2,3-b]pyrazine-6-carboxamide]
< 100 nM | Cc1ccc(NC(=O)c2cccc(C(C)(C)C#N)c2)cc1NC(=O)c1cc2[nH]c(=O)cnc2s1 [Example 58, N-(5-(3-(2-cyanopropan-2-yl)benzamido)-2-methylphenyl)-2-oxo-1,2-dihydrothieno[2,3-b]pyrazine-6-carboxamide]
< 10 nM | Cc1ccc(NC(=O)c2cccc(C(C)(C)C#N)c2)cc1NC(=O)c1cc2ncc(N(C)C)nc2s1 [Example 60, N-(5-(3-(2-cyanopropan-2-yl)benzamido)-2-methylphenyl)-3-(dimethylamino)thieno[2,3-b]pyrazine-6-carboxamide]
< 100 nM | CCOc1cnc2cc(C(=O)Nc3cc(NC(=O)c4cccc(C(C)(C)C#N)c4)ccc3C)sc2n1 [Example 71, N-(5-(3-(2-cyanopropan-2-yl)benzamido)-2-methylphenyl)-3-ethoxythieno[2,3-b]pyrazine-6-carboxamide]
< 100 nM | Cc1ccc(C(=O)Nc2cccc(C(F)(F)F)c2)cc1NC(=O)c1sc2nccnc2c1N [Example 74, 7-amino-N-(2-methyl-5-(3-(trifluoromethyl)phenylcarbamoyl)phenyl)thieno[2,3-b]pyrazine-6-carboxamide]
< 100 nM | CCOc1cnc2sc(C(=O)Nc3cc(NC(=O)c4cccc(C(C)(C)C#N)c4)ccc3C)cc2n1 [Example 76, N-(5-(3-(2-cyanopropan-2-yl)benzamido)-2-methylphenyl)-2-ethoxythieno[2,3-b]pyrazine-6-carboxamide]
